{"source": "patent US20240108734A1", "about": "“METHODS FOR TREATING AND AMELIORATING CANCER” (The Regents of the University of California, priority 2021, published 2024)", "key": {"BC CML CD34+ cells (LSC)": {"test_system": "BC CML CD34+ cells (LSC)", "assay": "SL/M2 stromal co-culture, clonogenic survival and self-renewal (replating) assays, BC CML", "format": "cell-based, human", "conditions": "imetelstat monotherapy, 1 to 10 μM, vs mismatch control", "description": "Lentiviral human wild-type and mutant ADAR1^E912A (pCDH-EF1-T2A-copGFP) and shRNA targeting ADAR1 were produced according to published protocols^27,37. In Vitro MPN-SPC and LSC Survival and Self-Renewal Assays with Imetelstat To assess MPN progenitor and LSC survival and self-renewal in vitro, human primary CD34^+ cells selected from BC CML (n=5), MF (n=9) or age matched normal bone marrow (a-NBM, n=4) were co-cultured with SL/M2 stromal cells for 7-14 days, and then treated with imetelstat alone or combined with dasatinib for BC CML or Pacritinib for MF. Colony forming and replating assays were performed as previously described^32.\nTo assess MPN progenitor and LSC survival and self-renewal in vitro, human primary CD34^+ cells selected from BC CML (n=5), MF (n=9) or age matched normal bone marrow (a-NBM, n=4) were co-cultured with SL/M2 stromal cells for 7-14 days, and then treated with Imetelstat alone or combined with dasatinib for BC CML or Pacritinib for MF. Colony forming and replating assays were performed as previously described^32,33.\nFIG. 3A. A schematic illustration of SL/M2 stromal co-cultures established to quantify in vitro MPN-SPC and LSC survival and self-renewal. Human primary CD34^+ cells selected from BC CML (n=5), MF (n=9) or age matched normal bone marrow (a-NBM, n=4) were co-cultured with SL/M2 stromal cells for 7-14 days. […]"}, "ADAR1": {"test_system": "ADAR1", "assay": "qRT-PCR gene expression in BC CML CD34+ cells in stromal co-culture", "format": "cell-based, human", "conditions": "imetelstat monotherapy 5 μM for 14 days vs mismatch control", "description": "(§1) FIG. 7 illustrates supplementary FIG. 2, where gene expression qRT-PCR analyses of human CD34^+ cells sorted from BC CML patient samples (n=3) and MF patient samples (n=5) that were co-cultured with SL/M2 stromal cells and treated with mismatch control or imetelstat at 5 μM for 14 days."}, "beta-catenin": {"test_system": "beta-catenin", "assay": "qRT-PCR gene expression in BC CML CD34+ cells in stromal co-culture", "format": "cell-based, human", "conditions": "imetelstat monotherapy 5 μM for 14 days vs mismatch control", "description": "as §1"}, "LSC": {"test_system": "LSC", "assay": "Serial transplantation of BC CML LSC mouse model (LSC self-renewal)", "format": "in vivo, mice", "description": "FIG. 4H. Self-renewal capacity of human progenitor cells was evaluated in serially transplanted mouse models. FACS analysis of percentage of live human CD34^+CD38^+Lin^− progenitor cells following serial engraftment of cells derived from mice treated with vehicle (red), mismatch (blue) or imetelstat (green).\nFIG. 4I. Kaplan-Meier survival curves of mice transplanted with CD34^+ cells selected from imetelstat treated mouse BM (green) compared with mismatch controls (blue)."}, "telomere length": {"test_system": "telomere length", "assay": "FlowFish telomere length assay in LSC mouse models", "format": "in vivo, human", "conditions": "imetelstat compared with mismatch control; p<0.05, t test, ANOVA", "description": "Telomere length was determined using the Telomere PNA Kit/FITC for Flow Cytometry (Dako, Cat #K5327) with a MACSQuant10 and analyzed with FlowJo software. The Relative Telomere Length (RTL) was calculated by dividing the mean fluorescence intensity (MFI) of the test sample G0/G1 population by the MFI of the normal peripheral blood reference G0/G1 population using the Cycletest™ Plus DNA Kit (BD, Cat #340242). Telomerase activity was determined using the TRAPeze Kit RT Telomerase Detection Kit (Millipore, Catalog No. S7710).\nSamples were selected from engrafted mouse bone marrow or spleen with human CD45+ immunomagnetic beads (Miltenyi). Telomere length was determined by using the Telomere PNA Kit/FITC for Flow Cytometry (Dako, Cat #K5327). Samples were run on the MACSQuant10 and analyzed with FlowJo software. The Relative Telomere Length (RTL) was calculated. The 1301 cell line was utilized as control cells. The DNA index was determined with the (BD Cycletest™ Plus DNA Kit, Cat #340242). The DNA index was obtained by dividing the MFI of the test sample G0/G1 population by the WI of the normal reference G0/G1 population. Human peripheral blood mononuclear cells were used as “the normal reference G0/G1 population” for calculating the DNA index. Telomerase activity was determined by using TRAPeze Kit RT Telomerase Detection Kit (Millipore, Catalog No. S7710). […]"}, "ADAR1p150": {"test_system": "ADAR1p150", "assay": "ADAR1p150 expression in human CD45+ cells from treated BC CML mice", "format": "in vivo", "conditions": "p=0.016", "description": "FIG. 5G. Boxplot depicting Log 2 (cpm) expression of ADAR1p150 by RNA-seq of human CD45^+ cells isolated from vehicle (red), mismatch control (blue) and imetelstat (green) treated BC CML mouse cells. The p-values from Student's t-tests are shown (Student's t-test: vehicle: p=0.337, imetelstat tx: p=0.016)."}}}
{"substance": "imetelstat", "values": [{"measurement": "BC CML LSC replating (self-renewal) capacity", "setting": "BC CML CD34+ cells (LSC)", "value": "ineffective"}, {"measurement": "ADAR1 gene expression by qRT-PCR", "setting": "ADAR1", "value": "ineffective"}, {"measurement": "beta-catenin self-renewal gene expression by qRT-PCR", "setting": "beta-catenin", "value": "ineffective"}, {"measurement": "LSC engraftment after serial transplantation", "setting": "LSC; compared with mismatch control treatment, p=0.04", "value": "significantly less"}, {"measurement": "survival rates of serially transplanted mice (Kaplan-Meier)", "setting": "LSC; compared with mismatch controls, p=0.05", "value": "longer"}, {"measurement": "telomere length (FlowFish assay)", "setting": "telomere length", "value": "normalization of telomere length"}, {"measurement": "ADAR1p150 expression", "setting": "ADAR1p150", "value": "significantly reduced"}]}
